Assay results taken from PubChem BioAssay AID248 (DTP/NCI, 2004).
Where “and” joins values, the source holds several entries; their conditions need not be identical. Identical values can stand only once. Inconclusive results and toxic doses are left out. Rule as the data show it: active = T/C of 150% or more; inactive = T/C below 125%.

Test system: L1210 leukemia ip in BDF1 mice, survival T/C
Experiment: NCI In Vivo Anticancer Drug Screen. Data for tumor model L1210 Leukemia (intraperitoneal) in B6D2F1 (BDF1) mice
Settings: endpoint: mean survival time, higher = longer survival
Description: The antitumor activity of compounds was measured in mice bearing transplantable tumors. Survival or tumor size were measured and the results are expressed as the measurement made in the treated group (T) divided by the measurement made in the vehicle treated control group (C). The tumor model used in this assay is L1210 Leukemia (intraperitoneal) in B6D2F1 (BDF1) mice

[1] = dose: 400.0 mg/kg/injection, schedule: Q04DX002 (ip), vehicle: saline with Tween-80
[2] = dose: 100.0 mg/kg/injection, schedule: Q01DX009 (ip), vehicle: Klucel (hydroxypropylcellulose) (HPC)
[3] = dose: 100.0 mg/kg/injection, schedule: Q04DX003 (ip), vehicle: Klucel (hydroxypropylcellulose) (HPC)
[4] = dose: 200.0 mg/kg/injection, schedule: Q01DX009 (ip), vehicle: Klucel (hydroxypropylcellulose) (HPC)
[5] = dose: 200.0 mg/kg/injection, schedule: Q04DX003 (ip), vehicle: Klucel (hydroxypropylcellulose) (HPC)
[6] = dose: 400.0 mg/kg/injection, schedule: Q01DX009 (ip), vehicle: Klucel (hydroxypropylcellulose) (HPC)
[7] = dose: 400.0 mg/kg/injection, schedule: Q04DX003 (ip), vehicle: Klucel (hydroxypropylcellulose) (HPC)
[8] = dose: 100.0 mg/kg/injection, schedule: Q04DX002 (ip), vehicle: Klucel (hydroxypropylcellulose) (HPC)
[9] = dose: 200.0 mg/kg/injection, schedule: Q04DX002 (ip), vehicle: Klucel (hydroxypropylcellulose) (HPC)
[10] = dose: 400.0 mg/kg/injection, schedule: Q04DX002 (ip), vehicle: Klucel (hydroxypropylcellulose) (HPC)
[11] = dose: 12.5 mg/kg/injection, schedule: Q01DX009 (ip), vehicle: Klucel (hydroxypropylcellulose) (HPC)
[12] = dose: 25.0 mg/kg/injection, schedule: Q01DX009 (ip), vehicle: Klucel (hydroxypropylcellulose) (HPC)
[13] = dose: 50.0 mg/kg/injection, schedule: Q01DX009 (ip), vehicle: Klucel (hydroxypropylcellulose) (HPC)
[14] = dose: 100.0 mg/kg/injection, schedule: Q01DX001 (ip), vehicle: saline
[15] = dose: 200.0 mg/kg/injection, schedule: Q01DX001 (ip), vehicle: saline
[16] = dose: 400.0 mg/kg/injection, schedule: Q01DX001 (ip), vehicle: saline
[17] = dose: 100.0 mg/kg/injection, schedule: Q04DX003 (ip), vehicle: saline with Tween-80
[18] = dose: 200.0 mg/kg/injection, schedule: Q04DX003 (ip), vehicle: saline with Tween-80
[19] = dose: 400.0 mg/kg/injection, schedule: Q04DX003 (ip), vehicle: saline with Tween-80
[20] = dose: 100.0 mg/kg/injection, schedule: Q04DX003 (ip), vehicle: saline

Measured: T/C

c1ccc(C(c2ccccc2)(c2ccccc2)c2ccc(Nc3ccc(C(c4ccccc4)(c4ccccc4)c4ccccc4)cc3)cc2)cc1
inactive: dose: 25.6 mg/kg/injection, schedule: Q04DX002 (ip), vehicle: saline with Tween-80 87 % of control | dose: 64.0 mg/kg/injection, schedule: Q04DX002 (ip), vehicle: saline with Tween-80 91 % of control | dose: 160.0 mg/kg/injection, schedule: Q04DX002 (ip), vehicle: saline with Tween-80 97 % of control | [1] 97 % of control

COc1ccccc1C1OCC(C)(C)CO1
inactive: [2] 90 % of control | [3] 109 % of control | [4] 95 % of control | [5] 103 % of control | [6] 92 % of control | [7] 108 % of control

Cc1nc(C)c([N+](=O)[O-])s1
inactive: [2] 93 % of control | [3] 100 % of control | [4] 94 % of control | [5] 96 % of control | [6] 101 % of control | [7] 100 % of control

Nc1nnco1
inactive: dose: 222.0 mg/kg/injection, schedule: Q01DX Z (ip), vehicle: saline 97 % of control | dose: 333.0 mg/kg/injection, schedule: Q01DX Z (ip), vehicle: saline 108 % of control | dose: 500.0 mg/kg/injection, schedule: Q01DX Z (ip), vehicle: saline 97 % of control

CN1C(=O)N(C)C(=O)C2(C1=O)C1(C(=O)N(C)C(=O)N(C)C1=O)C21C(=O)N(C)C(=O)N(C)C1=O
inactive: [8] 102 % of control | [9] 100 % of control | [10] 89 % of control

Cc1ccc2nc[nH]c(=O)c2c1
inactive: [8] 106 % of control | [9] 103 % of control | [10] 103 % of control

CCCc1cc2c(cc1CS(=O)(=O)c1ccccc1)OCO2
inactive: [11] 97 % of control | [12] 112 % of control | [13] 108 % of control | [2] 101 % of control and 102 % of control | [3] 94 % of control | [4] 102 % of control | [5] 97 % of control | [7] 101 % of control

CC(NNC(c1ccccc1)(c1ccccc1)c1ccccc1)c1ccccc1I (configuration not stated)
inactive: dose: 100.0 mg/kg/injection, schedule: Q04DX002 (ip), vehicle: saline with Tween-80 93 % of control | dose: 200.0 mg/kg/injection, schedule: Q04DX002 (ip), vehicle: saline with Tween-80 95 % of control | [1] 97 % of control

N=C1SCc2ccc3ccccc3c21
inactive: dose: 100.0 mg/kg/injection, schedule: Q01DX001 (ip), vehicle: other 92 % of control | dose: 200.0 mg/kg/injection, schedule: Q01DX001 (ip), vehicle: other 108 % of control | dose: 400.0 mg/kg/injection, schedule: Q01DX001 (ip), vehicle: other 97 % of control

N#CCC(=O)N/N=C\c1ccc2c(c1)OCO2
inactive: dose: 100.0 mg/kg/injection, schedule: Q01DX001 (ip), vehicle: carboxymethylcellulose (CMC) 97 % of control | dose: 200.0 mg/kg/injection, schedule: Q01DX001 (ip), vehicle: carboxymethylcellulose (CMC) 94 % of control | dose: 400.0 mg/kg/injection, schedule: Q01DX001 (ip), vehicle: carboxymethylcellulose (CMC) 97 % of control

O=C(O)CSc1cc(Cl)ccc1Cl
inactive: [11] 102 % of control | [12] 100 % of control | [13] 106 % of control and 121 % of control | [2] 104 % of control and 92 % of control | [8] 104 % of control | [4] 105 % of control | [9] 110 % of control

C(=N\N1CCN(/N=C/c2ccc3c(c2)OCO3)CC1)/c1ccc2c(c1)OCO2
inactive: [14] 104 % of control | [15] 102 % of control | [16] 96 % of control

CCCCCCCC/C=C/CCCCCCCCNC(=O)NCCCl
inactive: dose: 100.0 mg/kg/injection, schedule: Q01DX009 (ip), vehicle: saline with Tween-80 95 % of control | [17] 87 % of control | dose: 200.0 mg/kg/injection, schedule: Q01DX009 (ip), vehicle: saline with Tween-80 92 % of control | [18] 87 % of control | [19] 94 % of control

Cc1cccc2c1NC(c1ccccc1)C(C)S2(=O)=O (configuration not stated)
inactive: dose: 50.0 mg/kg/injection, schedule: Q01DX001 (ip), vehicle: Klucel (hydroxypropylcellulose) (HPC) 106 % of control | dose: 100.0 mg/kg/injection, schedule: Q01DX001 (ip), vehicle: Klucel (hydroxypropylcellulose) (HPC) 96 % of control | dose: 200.0 mg/kg/injection, schedule: Q01DX001 (ip), vehicle: Klucel (hydroxypropylcellulose) (HPC) 102 % of control | dose: 400.0 mg/kg/injection, schedule: Q01DX001 (ip), vehicle: Klucel (hydroxypropylcellulose) (HPC) 96 % of control

C=CCN1C(=O)C=CC1=O
inactive: dose: 3.0 mg/kg/injection, schedule: Q04DX002 (ip), vehicle: Klucel (hydroxypropylcellulose) (HPC) 108 % of control | dose: 6.0 mg/kg/injection, schedule: Q04DX002 (ip), vehicle: Klucel (hydroxypropylcellulose) (HPC) 93 % of control

Nc1cccc(C(=O)NO)c1
inactive: [14] 98 % of control | [15] 103 % of control | [16] 97 % of control

N#CC1C2CCC(C2)C1CCCN (configuration not stated)
inactive: dose: 25.0 mg/kg/injection, schedule: Q01DX009 (ip), vehicle: saline 108 % of control | dose: 25.0 mg/kg/injection, schedule: Q04DX003 (ip), vehicle: saline 102 % of control | dose: 50.0 mg/kg/injection, schedule: Q01DX009 (ip), vehicle: saline 106 % of control | dose: 50.0 mg/kg/injection, schedule: Q04DX003 (ip), vehicle: saline 95 % of control | dose: 100.0 mg/kg/injection, schedule: Q01DX009 (ip), vehicle: saline 98 % of control | [20] 95 % of control and 115 % of control

CC1(C)N=C(N)N=C(N)N1c1cccc(OCCCOc2ccc(N)cc2)c1
inactive: dose: 5.0 mg/kg/injection, schedule: Q01DX001 (ip), vehicle: saline 97 % of control | dose: 10.0 mg/kg/injection, schedule: Q01DX001 (ip), vehicle: saline 100 % of control | dose: 20.0 mg/kg/injection, schedule: Q01DX001 (ip), vehicle: saline 101 % of control | dose: 40.0 mg/kg/injection, schedule: Q01DX001 (ip), vehicle: saline 100 % of control

OC(c1ccc(C2CC2)cc1)(c1ccc(C2CC2)cc1)c1ccc(C2CC2)cc1
inactive: [17] 104 % of control | [18] 102 % of control | [19] 91 % of control

Cc1[nH]c(=O)[nH]c(=O)c1N(CCO)CCF
inactive: [20] 98 % of control | dose: 200.0 mg/kg/injection, schedule: Q04DX003 (ip), vehicle: saline 101 % of control | dose: 400.0 mg/kg/injection, schedule: Q04DX003 (ip), vehicle: saline 97 % of control
